The inhibition is the change of the read-out against control, counted positive when it falls. Lower therefore signals a response near the control.

Assay type in all cases: biochemical, Gluconobacter oxydans UV-10
The target in experiment [1] is T1, L-sorbose dehydrogenase (Gluconobacter oxydans, UniProt Q47944). Particulars: 0.1 ml of 1M substrate solution instead of L-sorbose, DCIP, 25° C., pH 7.0. As for the experimental part:
(§1) Enzyme assay was performed at 25° C. by measuring the decrease of absorbance at 600 nm of DCIP spectrophotometrically. One unit of enzyme activity was defined as the amount of enzyme which catalyzed the reduction of 1 μmole of DCIP per minute. The extinction coefficient of DCIP at pH 7.0 was taken as 14.5 mM^-1. The basal reaction mixture is shown below. The mixture was prepared just before the assay.
(§2) A cuvette with 1 cm light path contained 0.4 ml of basal mixture, 0.1 ml of 1M L-sorbose, enzyme solution, and water in a final volume of 0.51 ml. A reference cuvette contains all components except the substrate. The reaction was initiated by the addition of the substrate. Enzyme activity was measured as the initial reduction rate of DCIP.
Substrate specificity of the enzyme was determined using the same enzyme assay method as described in the above (1) except that 0.1 ml of each of the various substrate solutions (1M) was used instead of L-sorbose.

Experiment [2] has as its target T1, L-sorbose dehydrogenase. Put plainly: Effect of metal ions on the enzyme activity. Particulars: for Effect of metal ion on the enzyme activity (in words): summary of Table 6. As for the experimental part:
as §1, §2
Using the assay procedure described under (1) above, the effect of various metal ions on the enzyme activity was examined. Co^2+ and Fe^3+ were stimulative and Cu^2+ was inhibitory.

The target of experiment [3] is T1, L-sorbose dehydrogenase. Put plainly: biochemical. Particulars: for Effect of inhibitor on the enzyme activity (in words): summary of Table 7. As for the experimental part:
Enzyme assay was performed at 25° C. by measuring the decrease of absorbance at 600 nm of DCIP spectrophotometrically. One unit of enzyme activity was defined as the amount of enzyme which catalyzed the reduction of 1 μmole of DCIP per minute. […] The basal reaction mixture is shown below. The mixture was prepared just before the assay.
as §2

For experiment [4], the target named is T1, L-sorbose dehydrogenase. Put plainly: Measurement of the Km value for L-sorbose. To be noted: L-sorbose 0.5 mM to 320 mM. How it is done: as §1, §2
In the procedure described under (2) above, the velocities of oxidising reactions with varying concentrations of L-sorbose from 0.5 mM to 320 mM were measured to determine the Km value for L-sorbose. The maximum reaction velocity was found at the substrate concentration of about 200 mM. Apparent Michaelis constant (Km) was calculated to be 102±10 mM with DCIP as an electron acceptor.

T1 sequence (Q47944 whole entry): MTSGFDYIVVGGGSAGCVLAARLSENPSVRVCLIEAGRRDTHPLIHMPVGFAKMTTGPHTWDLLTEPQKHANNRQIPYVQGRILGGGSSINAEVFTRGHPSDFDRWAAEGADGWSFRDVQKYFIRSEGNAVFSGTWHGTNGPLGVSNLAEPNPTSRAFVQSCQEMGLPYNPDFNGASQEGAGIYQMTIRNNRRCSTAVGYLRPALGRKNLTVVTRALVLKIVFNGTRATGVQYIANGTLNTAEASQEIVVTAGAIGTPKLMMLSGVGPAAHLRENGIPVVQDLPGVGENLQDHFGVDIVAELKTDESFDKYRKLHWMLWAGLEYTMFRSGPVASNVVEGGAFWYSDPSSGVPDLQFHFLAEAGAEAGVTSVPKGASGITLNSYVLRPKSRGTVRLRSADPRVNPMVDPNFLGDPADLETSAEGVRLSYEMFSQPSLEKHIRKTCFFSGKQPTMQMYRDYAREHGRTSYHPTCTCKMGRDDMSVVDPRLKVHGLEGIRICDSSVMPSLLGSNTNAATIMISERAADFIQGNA

Turning to `O=C([O-])[C@@H](O)[C@H](O)[C@@H](O)[C@H](O)CO.O=C([O-])[C@@H](O)[C@H](O)[C@@H](O)[C@H](O)CO.[Ca+2]` [Ca-Idonate], at L-sorbose dehydrogenase [1], the “Relative enzyme activity (%)” value is given as 0%.

As for `[Ca+2].[Cl-].[Cl-]` [CaCl2], the “Relative activity (%)” value on L-sorbose dehydrogenase [2] (metal 0.4 mM) and at L-sorbose dehydrogenase [2] (metal 0.8 mM) was 100% each time.

`O.O.O.O.O.O.[Cl-].[Cl-].[Co+2]` [CoC1 · 6H2O]: the “Relative activity (%)” value is listed as 109.2% on L-sorbose dehydrogenase [2] (metal 0.4 mM) and 118.4% at L-sorbose dehydrogenase [2] (metal 0.8 mM).

On to `[Co+2]` [Co^2+], for which the “Effect of metal ion on the enzyme activity (in words)” value (shortened to “Effect of metal ion”) on L-sorbose dehydrogenase [2] is recorded as “stimulative”.

Consider `O.O=[N+]([O-])[O-].O=[N+]([O-])[O-].[Cu+2]` [Cu(NO3)2 · H2 O], for which the “Relative activity (%)” value at L-sorbose dehydrogenase [2] (metal 0.3 mM) is given as 2.27%.

For `O.O.[Cl][Cu][Cl]` [CuCl2 · 2H2 O], at L-sorbose dehydrogenase [2] (metal 0.4 mM), the “Relative activity (%)” value amounted to 0%.

Regarding `O.O.O.O.O.O=S(=O)([O-])[O-].[Cu+2]` [CuSO4 · 5H2 O], the “Relative activity (%)” value on L-sorbose dehydrogenase [2] (metal 0.08 mM) worked out at 30.9%.

Take `O=S(=O)([O-])[O-].[Cu+2]` [CuSO4]: at L-sorbose dehydrogenase [2] (metal 0.8 mM), the “Relative activity (%)” value was 0%.

With `[Cu+2]` [Cu^2+], on L-sorbose dehydrogenase [2], the “Effect of metal ion” value is recorded as “inhibitory”.

On L-sorbose dehydrogenase [3], `O=C(O)CN(CCN(CC(=O)O)CC(=O)O)CC(=O)O` [EDTA] yielded an inhibition at 940 µM of 0% and an inhibition at 5200 µM of 13.3%.

Consider `[Fe+3]` [Fe^3+], for which the “Effect of metal ion” value at L-sorbose dehydrogenase [2] is “stimulative”.

Turning to `O.O.O.O.O.O.[Cl-].[Cl-].[Mg+2]` [MgCl2 · 6H2 O], the “Relative activity (%)” value on L-sorbose dehydrogenase [2] (metal 0.8 mM) is reported as 83.3%.

As to `O.O.O.O.O.O.O.O=S(=O)([O-])[O-].[Mg+2]` [MgSO4 · 7H2 O], the “Relative activity (%)” value on L-sorbose dehydrogenase [2] (metal 0.4 mM) and on L-sorbose dehydrogenase [2] (metal 0.8 mM) was 100% each time.

Take `O.O.O.O.[Cl][Mn][Cl]` [MnCl2 · 4H2 O]: the “Relative activity (%)” value on L-sorbose dehydrogenase [2] (metal 0.4 mM) was 100%; at L-sorbose dehydrogenase [2] (metal 0.9 mM), 98.3%.

As for `O.O=S(=O)([O-])[O-].[Mn+2]` [MnSO4 · H2 O], the “Relative activity (%)” value on L-sorbose dehydrogenase [2] (metal 0.4 mM) worked out at 100%.

Turning to `O=C(O)CI` [Mono-Iodo acetate], on L-sorbose dehydrogenase [3], testing at 1850 µM gave an inhibition of 0%, at 4240 µM the inhibition was 34.6%, testing at 9370 µM gave an inhibition of 68.5% and the “Effect of inhibitor on the enzyme activity (in words)” value (“Effect of inhibitor” for short) is listed as “inhibited the enzyme activity partially”.

Take `CCN1C(=O)C=CC1=O` [N-Ethyl-maleimide]: on L-sorbose dehydrogenase [3], the inhibition at 1850 µM is 0% and at 4240 µM the inhibition was 0%.

As for `O.O.O.O.O.O.O.O=[As]([O-])([O-])O.[Na+].[Na+]` [Na2 HAs · O4 · 7H2 O], the “Inhibition (%)” value on L-sorbose dehydrogenase [3] (inhibitor 1.85 mM) and on L-sorbose dehydrogenase [3] (inhibitor 4.24 mM) was 0% in each case.

In the case of `O.O.[Na+].[Na+].[O]=[Mo](=[O])([O-])[O-]` [Na2 MoO4 · 2H2 O], the results for the “Relative activity (%)” value at L-sorbose dehydrogenase [2] (metal 0.3 mM) and on L-sorbose dehydrogenase [2] (metal 1.06 mM) were 86.1% and 69.6%, respectively.

Consider `O.O.O.O.O.O.O=S(=O)([O-])[O-].[Ni+2]` [NiSO4 · 6H2 O], for which the “Relative activity (%)” value on L-sorbose dehydrogenase [2] (metal 0.4 mM) and on L-sorbose dehydrogenase [2] (metal 0.9 mM) was 100% throughout.

As for `O=C(O)c1cc[c]([Hg][Cl])cc1` [PCMB, p-chloro-mercuri-benzoate], the “Inhibition (%)” value on L-sorbose dehydrogenase [3] (inhibitor 0.02 mM), at L-sorbose dehydrogenase [3] (inhibitor 0.04 mM) and on L-sorbose dehydrogenase [3] (inhibitor 0.17 mM) was 0% throughout.

`C=C[C@H]1C[N@@]2CC[C@H]1C[C@H]2[C@H](O)c1ccnc2ccc(OC)cc12` [Quinine]: at L-sorbose dehydrogenase [3], the inhibition at 1850 µM worked out at 0%, testing at 4240 µM gave an inhibition of 30.5% and the “Effect of inhibitor” value is listed as “inhibited the enzyme activity partially”.

With `[N-]=[N+]=[N-]` [Sodium Azide], at L-sorbose dehydrogenase [3], 1850 µM produced 0% inhibition and the inhibition at 4240 µM amounted to 0%.

For `[F-].[Na+]` [Sodium Fluoride], the “Inhibition (%)” value at L-sorbose dehydrogenase [3] (inhibitor 1.85 mM) is listed as 10.3%; on L-sorbose dehydrogenase [3] (inhibitor 4.24 mM) it was 10.3%; on L-sorbose dehydrogenase [3] (inhibitor 9.37 mM), 22.1%. For the same molecule, the “Effect of inhibitor” value at L-sorbose dehydrogenase [3] is given as “inhibited the enzyme activity partially”.

On to `O=C(O)CF` [Sodium Fluoro acetate], for which, on L-sorbose dehydrogenase [3], the inhibition at 1850 µM was found to be 0%, the inhibition at 4240 µM stood at 8.6%, 9370 µM produced 26.5% inhibition and the “Effect of inhibitor” value was “inhibited the enzyme activity partially”.

Take `O=C(CO)[C@@H](O)[C@H](O)[C@@H](O)CO` [Sorbose, L-sorbose]: the “Substrate concentration of maximum reaction velocity” value at L-sorbose dehydrogenase [4] is on record as “about 200 mM”.

Regarding `O.O.O.O.O.O.O.O=S(=O)([O-])[O-].[Zn+2]` [ZnSO4 · 7H2 O], the “Relative activity (%)” value at L-sorbose dehydrogenase [2] (metal 0.4 mM) and at L-sorbose dehydrogenase [2] (metal 0.9 mM) was 100% each time.

Take Fe(SO4)3 .multidot. xH2 O: the “Relative activity (%)” value at L-sorbose dehydrogenase [2] (metal 0.4 mM) was found to be 121.3%; at L-sorbose dehydrogenase [2] (metal 0.9 mM), 106.4%.

In the case of TiCl, the “Relative activity (%)” value at L-sorbose dehydrogenase [2] (metal 0.4 mM), at L-sorbose dehydrogenase [2] (metal 0.8 mM) and at L-sorbose dehydrogenase [2] (metal 1.8 mM) was 100% each time.

The values are drawn from US4916069A, “Enzyme and process for producing the same” (priority 1986, dated 1990).
